Details of series [1]: method as in PMID 21498533. Particulars: cited from earlier work.
Series [2] is described as follows: Micro-PET/CT brain imaging in ICR mice with thiamine deficiency (TD) and control mice. In kind it is in vivo. Particulars: control mice (C57BL/6 and ICR, Fig. 3a, c).
Excerpt: Eight-week-old male C57BL/6 and ICR mice were randomly divided into two groups: TD mouse models (n = 2 for C57BL/6, one died due to anesthesia during micro-PET/CT scanning; n = 3 for ICR) were established by feeding thiamine-deprived diet (Trophic Animal Feed High-tech Co., Ltd., China). Control mice (n = 3 for each strain) were fed the general diet. Twenty-eight days later, all mice received PET/CT scanning.
The animals were anesthetized by inhaling 1.5–2% of isoflurane in air (1.5 L/min) and received CT scan for acquiring structure image and attenuation correction data. […] Brain PET imaging was immediately performed and dynamically acquired for 90 min with an energy window of 350–650 KeV and a time window of 3.438 ns. […] Dynamic images were reconstructed by OSEM3D/SP-MAP algorithm with two iterations. After scanning, the mice were sacrificed.

For the molecule `OC[C@H]1OC(O)[C@H]([18F])[C@@H](O)[C@@H]1O` (some centres unmarked) [FDG, [^18F]-fluorodeoxyglucose], in series [1], the “SUV in the brains of mice” value is on record as 1–2. For the molecule ^18F-deoxy-thiamine, the “SUVs in the brains” value in series [2] was “less than 0.4”.

(Values after PMC7575681 (EJNMMI Research, 2020).)
